Laboratory results: patent publication US5432172A, “Biological applications of alkaloids derived from the tunicate Eudistoma sp” (The Research Foundation of State University of New York, priority 1993, dated 1995)
“Also recorded” adds a separate entry of the source. Read-outs that look alike come from different tables or passages of the source.

What was measured:
[1] = test system: neuroblastoma N1E-115 cells; assay: Growth and morphological differentiation of mouse neuroblastoma N1E-115 cells; details: for range of effective concentrations that inhibited cell proliferation and induced morphological differentiation / effects on cell appearance: N1E-115 cells; for range of effective concentrations that inhibited cell proliferation and induced morphological differentiation: below range no noticeable effect, above range cytotoxic; for effects on cell appearance: morphology; for most effective concentration for the cells tested: summary, cells tested in the present invention; for effects on cell growth and differentiation / effect on cell division and morphological differentiation / long-term effect on cell division: single application; for effect on cell division and morphological differentiation: 3 days; for long-term effect on cell division: 6 days
Procedure: A,B: Untreated cells, 3 (A) and 8 (B) days after subculture. C,D: Cells grown for 3 (C) and 8 (D) days with 12.8 μM Debromoshermilamine. E,F: Cells grown for 7 days with Isosegoline A (39 μM) and Norsegoline (16.3 μM), respectively.
A,B: Untreated cells 3 (A) and 6 (B) days after subculture. C,D: Cells grown for 3 (C) and 6 (D) days with 50 μM forskolin. E,F: Cells grown for 3 (E) and 6 (F) days with 39 μM Segoline A. G,H: Cells grown for 3 (G) and 6 (H) days with 0.14 μM Eilatin.
Cells were grown for six days in the absence of drugs (A), or in the presence of: 10 μM 4-methylpyrido[2,3,4-kl]acridine (B), 4 μM pyrido[2,3,4-kl]acridine (C), 0.08 μM Eilatin (D), 75 μM forskolin (E).
The inventors chose the neuroblastoma N1E-115 cells because these tumor-derived cells can be induced to express characteristic neuronal properties by a variety of procedures see Spector, "Electrophysiology of clonal nerve cell lines. In: Excitable Cells in Tissue Culture", Nelson et al. eds., Plenum, New York 247-277 (1981) and can serve as a useful experimental system in which to explore the effects of the Eudistoma alkaloids on the biological properties of both cancer cells and neuronal cells.
The N1E-115 cells were exposed to various concentrations of the six (6) natural products shown in FIG. 1, and of the two synthetic pyridoacridines shown in Scheme III of FIG. 2. […] A,B: Untreated cells, 3 (A) and 8 (B) days after subculture. C,D: Cells grown for 3 (C) and (8) days with 12.8 μM Debromoshermilamine. E,F: Cells grown for 7 days with Isosegoline A (39 μM) and Norsegoline (16.3 μM), respectively. FIG. 5 illustrates the appearance of N1E-115 cells 6 days after replating in the absence (A) and in the presence of 10 μM 4-methylpyrido[2,3,4-kl]acridine (B), or 4 μM pyrido[2,3,4-kl]acridine.

[2] = test system: normal hamster fibroblast NIL8 cell line; assay: Growth and morphology of normal NIL8 fibroblast cells; type: cell-based; details: single application
[3] = test system: type II cAMP-dependent protein kinase; details: literature; cited from earlier work
pyruvate kinase = assay: Pyruvate kinase activity in cultured rat hepatoma FAO cells; type: cell-based; details: for Km: control 0.14, read-out: Km for the substrate phosphoenolpyruvate (PEP)
Procedure: FIG. 11 is a graph showing the effects of the Eudistoma alkaloids on pyruvate kinase activity in cultured rat hepatoma FAO cells. Enzyme activity v/Vmax was assayed as described in Example IV in partially purified extracts from cells incubated for 1 h in the absence ( ) or presence of 100 μM CPT-cAMP (.cndot.) and 26 μM segoline A ( ) as a function of substrate concentrations (phosphoenolpyruvate, PEP).
1. Activity of pyruvate kinase--a key glycolytic enzyme whose activity is inhibited by cAMP-dependent phosphorylation.
FIG. 11 is a graph showing the effects of the Eudistoma alkaloids on pyruvate kinase activity in cultured rat hepatoma FAO cells. Enzyme activity v/Vmax was assayed in partially purified extracts from cells incubated for 1 h in the absence (squares) or presence of 100 μM 8-(4-chlorophenylthio) cyclic AMP (CPT-cAMP)-CPT-cAMP (circles) and 26 μM Segoline A (triangles) as a function of substrate concentrations (phosphoenolpyruvate, PEP).

NIL8-HSV cells = test system: NIL8-HSV cells
Procedure: A-D Cells grown for 6 days in the absence of drugs (A), or in the presence of 75 μM forskolin (B), 13 μM Segoline B (C) or 0.21 μM Eilatin (D). E and F show the appearance of the Segoline B- and Eilatin-treated cells, 7 days after removal of the toxins.
A: F-actin staining in control cells. B: F-actin staining in a cell treated for 4 days with 13 μM Segoline B.
Cells were grown for 6 days in the absence of drugs (A), or in the presence of 10 μM 4-methylpyrido[2,3,4-kl]acridine (B), 4 μM pyrido[2,3,4-kl]acridine (C), 0.08 μM eilatin (D), or 75 μM forskolin (E).
As reviewed by Willingham, Int. Rev. […] Transformed fibroblasts which display altered growth patterns and aberrant morphologies respond to cAMP elevation by restoration of many normal aspects of growth and morphology, a phenomenon known as "cAMP-mediated reverse transformation" as described by Lockwood et al., J. Cell. Biochem., 33, 237-255 (1987).
A-D show cells grown for 6 days in the absence of drugs (A), or in the presence of 75 μM forskolin (B), 13 μM Segoline B (C) or 0.21 μM Eilatin (D). E and F show the appearance of the Segoline B- and Eilatin-treated cells, 7 days after removal of the toxins.
A: F-actin staining in control cells.

[4] = test system: normal hamster fibroblast NIL8 cell line; assay: Growth and morphology of normal NIL8 fibroblast cells; type: cell-based
Procedure: Cells were grown for 5 days in the absence of drugs (A), and in the presence of 25 μM forskolin (B), 1.4 μM Eilatin (C), or 12.8 μM Debromoshermilamine (D). […]
As illustrated, a single application of 1.4 μM Eilatin or 12.8 μM Debromoshermilamine to NIL8 cells produced effects which are strikingly similar to those obtained by chronically treating time cells with agents that elevate or mimic cAMP. […] This predilection towards cancer cells is a very desirable property in developing potential drugs for the treatment of cancer.

[5] = 1.4 μM Eilatin, 5 days, single application

Q: With COc1cc2c3c4c(ccnc14)-c1ccccc1N3C(C)C1(C)C(=O)NC(=O)C21 (single isomer, unassigned) [Isosegoline A] as the molecule, how does the “range of effective concentrations that inhibited cell proliferation and induced morphological differentiation” value [1] read?
A: Its value is 12-52 μM.

Q: What about the “effects on cell appearance” value [1] of the same molecule?
A: The value was “flattened cell bodies as well as numerous long neurites”.

Q: What about the “most effective concentration for the cells tested” value (“most effective concentration” for short) [1] of the same molecule?
A: The value was 12 to 52 µM.

Q: Which “range of effective concentrations that inhibited cell proliferation and induced morphological differentiation” value [1] does the source give for Cc1ccc2c3c(ccnc13)-c1ccccc1N2 [4-methylpyrido[2,3,4-kl]acridine] here?
A: The value was 7.5-12.5 μM.

Q: And the “effects on cell appearance” value [1]?
A: The value was “most neurites were short”.

Q: What about the “most effective concentration” value [1] of the same molecule?
A: Its value is 7.5 to 12.5 µM.

Q: And the “effect on NIL8 cells” value ([2]; 10 μM 4-methylpyrido[2,3,4-kl]acridine, 6 days)?
A: Its value is “effects which were similar to those produced by the natural alkaloids”.

Q: Which results are given for Nc1ncnc2c1nc(Cl)n2[C@@H]1O[C@@H]2COP(=O)(O)O[C@H]2[C@H]1O [8-chloro-cAMP, reference compound]?
A: effects on cell growth and differentiation ([1]; 8-chloro cAMP 250 μM): transient effects; preferential binding to type II cAMP-dependent protein kinase [3]: bind preferentially to type II cAMP-dependent protein kinase

Q: What does the source list for Nc1ncnc2c1nc(Sc1ccc(Cl)cc1)n2[C@@H]1O[C@@H]2COP(=O)(O)O[C@H]2[C@H]1O [CPT-cAMP, 8-(4-chlorophenylthio) cyclic AMP, reference compound]?
A: effects on cell growth and differentiation ([1]; CPT-cAMP 250-500 μM): transient effects; Km (pyruvate kinase; 100 μM CPT-cAMP, 1 h): 520 µM; preferential binding to type II cAMP-dependent protein kinase [3]: bind preferentially to type II cAMP-dependent protein kinase

Q: For c1ccc2c(c1)nc1c3nc4ccccc4c4ccnc(c5nccc2c51)c43 [Eilatin], which “cytotoxicity to transformed cells versus normal cells” value (NIL8-HSV cells) is on record?
A: Its value is “more cytotoxic to transformed cells than to normal cells”.

Q: And the “reverse transformation in NIL8-HSV cells” value (NIL8-HSV cells; 0.08 μM Eilatin)?
A: Its value is “reverse transformation in NIL8-HSV cells”.

Q: And the “reversal of the effects of transformation” value (NIL8-HSV cells; 0.21 μM Eilatin, one application)?
A: Its value is “permanently reverse the effects of transformation”.

Q: And the “effects on cell shape and actin organization” value (NIL8-HSV cells; 0.21 μM Eilatin, FIG. 8D)?
A: Its value is “became large and flat and showed the typical network of stress fibers”.

Q: And the “growth and morphology after drug removal” value (NIL8-HSV cells; 7 days after removal of 0.21 μM Eilatin)?
A: The value was “maintained their reduced growth and flattened morphology”.

Q: What about the “differentiation in N1E-115 cells” value ([1]; 0.08 μM Eilatin) of the same molecule?
A: Its value is “produced differentiation in N1E-115 cells”.

Q: What about the “effect on cell division and morphological differentiation” value ([1]; 0.14 μM Eilatin) of the same molecule?
A: Its value is “inhibited cell division and induced morphological differentiation”.

Q: What about the “long-term effect on cell division” value ([1]; 0.14 μM Eilatin) of the same molecule?
A: Its value is “cell division is completely blocked”.

Q: What about the “toxicity to transformed cells” value ([1]; 1.4 μM Eilatin, N1E-115 ("both the transformed cell lines")) of the same molecule?
A: Its value is “toxic to both the transformed cell lines”.

Q: And the “range of effective concentrations that inhibited cell proliferation and induced morphological differentiation” value [1]?
A: Its value is 0.05-0.5 μM.

Q: What about the “effects on cell appearance” value [1] of the same molecule?
A: Its value is “flattened cell bodies as well as numerous long neurites”.

Q: And the “potency relative to the other five naturally occurring compounds and the synthetic pyridoacridines” value ([1]; actions at the cellular level)?
A: The value was 100 times.

Q: What about the “most effective concentration” value [1] of the same molecule?
A: The value was 0.05 to 0.5 µM.

Q: And the “effect on NIL8 cells” value ([2]; 0.08 μM Eilatin)?
A: Its value is “no effects on NIL8 cells; also recorded: did not exert any effect on the normal NIL8 cells”.

Q: And the “effect on cell shape of NIL8 cells” value [4, 5]?
A: The value was “more elongated”.

Q: What about the “effect on growth of NIL8 cells” value [4, 5] of the same molecule?
A: Its value is “growth was inhibited”.

Q: And the “effect on normal cells” value ([4]; at concentrations that induce differentiation and reverse transformation of transformed cells)?
A: Its value is “no effect on normal cells”.

Q: Which “range of effective concentrations that inhibited cell proliferation and induced morphological differentiation” value [1] does the source give for COC(=O)c1cc(OC)c2nccc3c2c1Nc1ccccc1-3 [Norsegoline] here?
A: The value was 8-40 μM.

Q: And the “effects on cell appearance” value [1]?
A: Its value is “relatively small cell bodies and numerous long neurites”.

Q: And the “most effective concentration” value [1]?
A: Its value is 8 to 40 µM.

Q: And the Km (pyruvate kinase; concentration of alkaloid not given)?
A: Its Km is 400 µM.

Q: What about the “inhibition of pyruvate kinase activity” value (pyruvate kinase; submaximal substrate concentrations) of the same molecule?
A: The value was “inhibit pyruvate kinase activity”.

Q: And the “rise in the Km for substrate (phosphoenolpyruvate)” value (pyruvate kinase; versus control)?
A: The value was “ca. 3 fold”.

Q: What does the source list for COc1cc2c3c4c(ccnc14)-c1ccccc1N3C1(C)C(=O)NC(=O)C2C1C (centres unmarked) [Segoline B]?
A: reversal of the effects of transformation (NIL8-HSV cells; 13 μM Segoline B, one application): permanently reverse the effects of transformation; effects on cell shape and actin organization (NIL8-HSV cells; 13 μM Segoline B, FIGS. 8C, 9B): became large and flat and showed the typical network of stress fibers; growth and morphology after drug removal (NIL8-HSV cells; 7 days after removal of 13 μM Segoline B): maintained their reduced growth and flattened morphology

Q: What does the source list for C=C[C@@]1(C)CC(=O)[C@]2(O)[C@@]3(C)[C@@H](O)CCC(C)(C)[C@@H]3[C@H](O)[C@H](OC(C)=O)[C@@]2(C)O1 [forskolin, reference compound]?
A: long-term effect on transformed phenotype (NIL8-HSV cells; 75 μM forskolin, 6 days (FIG. 8B)): reverted to the transformed phenotype; reversal of the effects of transformation (NIL8-HSV cells; forskolin 50-100 μM, single application, data not shown): transiently reverse the effects of transformation; effect on cell division and morphological differentiation ([1]; 50 μM forskolin): inhibited cell division and induced morphological differentiation; long-term effect on cell division ([1]; 50 μM forskolin): became confluent like the control cells; effect on NIL8 cells ([4]; 25 μM forskolin, 5 days, single application): the cells reached the high saturation densities typical of untreated cultures

Q: For c1ccc2c(c1)Nc1cccc3nccc-2c13 [pyrido[2,3,4-kl]acridine], which “range of effective concentrations that inhibited cell proliferation and induced morphological differentiation” value [1] is on record?
A: Its value is 2-5 μM.

Q: And the “effects on cell appearance” value [1]?
A: Its value is “flattened cell bodies as well as numerous long neurites”.

Q: And the “most effective concentration” value [1]?
A: The value was 2 to 5 µM.

Q: What about the “effect on NIL8 cells” value ([2]; 4 μM pyrido[2,3,4-kl]acridine, 6 days) of the same molecule?
A: The value was “effects which were similar to those produced by the natural alkaloids”.
